Test results reported in ChEMBL document CHEMBL1201862, “PubChem BioAssay data set” (2004).
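These data come from cells grown in 96-well plates and exposed to compound for 48 hours at five concentrations. Here, GI50 denotes the concentration required for 50% inhibition of growth.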 The source made the active and inactive calls. Cut-off read from the data, not from the text of the source: active = GI50 up to about 1.1 µM and inactive = higher.

How the values were obtained:
Assay in all cases: NCI anticancer screen, dose series, 48 h
CCRF-CEM = system: CCRF-CEM
OVCAR-8 = system: OVCAR-8
NCI-H23 = system: NCI-H23
KM12 = system: KM12
UACC-62 = system: UACC-62
OVCAR-3 = system: OVCAR-3
SW-620 = system: SW-620
HT-29 = system: HT-29
786-0 = system: 786-0
UACC-257 = system: UACC-257
SF-295 = system: SF-295
TK-10 = system: TK-10
OVCAR-4 = system: OVCAR-4
SK-MEL-5 = system: SK-MEL-5
NCI-H226 = system: NCI-H226

Measured: GI50

N#CC1C[C@@H]2CC3(CCC2CN1C(=O)c1ccccc1)OCCO3 (stereo partly specified)
inactive: CCRF-CEM > 100 µM | OVCAR-8 > 100 µM | NCI-H23 > 100 µM | KM12 > 100 µM | UACC-62 > 100 µM | OVCAR-3 > 100 µM | SW-620 > 100 µM | HT-29 > 100 µM | 786-0 > 100 µM | UACC-257 > 100 µM | SF-295 > 100 µM | TK-10 > 100 µM | OVCAR-4 > 100 µM | SK-MEL-5 > 100 µM

COc1ccc(C(=O)C(c2ccc(OC)cc2)C2(O)C(=O)Nc3ccc([N+](=O)[O-])cc32)cc1 (stereo unspecified)
inactive: CCRF-CEM > 100 µM | OVCAR-8 > 100 µM | NCI-H23 > 100 µM | KM12 > 100 µM | UACC-62 > 100 µM | OVCAR-3 > 100 µM | SW-620 > 100 µM | HT-29 > 100 µM | NCI-H226 > 100 µM | 786-0 > 100 µM | UACC-257 > 100 µM | SF-295 > 100 µM | TK-10 > 100 µM | OVCAR-4 > 100 µM

Clc1ccc(C2=NOC(C3CCCCC3)C2)cc1 (stereo unspecified)
inactive: CCRF-CEM > 100 µM | OVCAR-8 > 100 µM | NCI-H23 > 100 µM | KM12 > 100 µM | UACC-62 > 100 µM | OVCAR-3 > 100 µM | SW-620 > 100 µM | HT-29 > 100 µM | NCI-H226 > 100 µM | 786-0 > 100 µM | UACC-257 > 100 µM | SF-295 > 100 µM | TK-10 > 100 µM | OVCAR-4 > 100 µM | SK-MEL-5 > 100 µM

O=C(CP(=O)(O)O)c1cccs1
inactive: CCRF-CEM > 100 µM | OVCAR-8 > 100 µM | NCI-H23 > 100 µM | KM12 > 100 µM | UACC-62 > 100 µM | OVCAR-3 > 100 µM | SW-620 > 100 µM | HT-29 > 100 µM | 786-0 > 100 µM | UACC-257 > 100 µM | SF-295 > 100 µM | TK-10 > 100 µM | SK-MEL-5 > 100 µM

CCOc1cc2c(cnc3c4cc(OC)c(OC)cc4ccc23)cc1OC
inactive: CCRF-CEM > 100 µM | OVCAR-8 > 100 µM | NCI-H23 > 100 µM | KM12 > 100 µM | UACC-62 > 100 µM | OVCAR-3 > 100 µM | SW-620 > 100 µM | HT-29 > 100 µM | 786-0 > 100 µM | UACC-257 > 100 µM | SF-295 > 100 µM | TK-10 > 100 µM | OVCAR-4 > 100 µM | SK-MEL-5 > 100 µM

COc1cc2cc3c4c(cc(OC)c(OC)c4c2cc1OC)CCN3C(=O)OCCN1CCNCC1
inactive: CCRF-CEM 18.4 µM | OVCAR-8 15.9 µM | NCI-H23 17.4 µM | KM12 15.1 µM | UACC-62 14.9 µM | OVCAR-3 15.3 µM | SW-620 14.9 µM | HT-29 12.6 µM | NCI-H226 14.4 µM | 786-0 11.6 µM | UACC-257 14.9 µM | SF-295 15 µM | TK-10 15 µM | OVCAR-4 17.5 µM | SK-MEL-5 14.3 µM

COc1ccc2c(c1)CCc1cnn(C3OC(COC(C)=O)C(OC(C)=O)C(OC(C)=O)C3OC(C)=O)c1-2 (stereo unspecified)
inactive: CCRF-CEM 15 µM | OVCAR-8 > 100 µM | NCI-H23 69 µM | KM12 > 100 µM | UACC-62 66.5 µM | OVCAR-3 23.9 µM | SW-620 18.4 µM | HT-29 37.2 µM | NCI-H226 79.6 µM | 786-0 28.2 µM | UACC-257 > 100 µM | SF-295 > 100 µM | TK-10 > 100 µM | SK-MEL-5 44.4 µM

CCOC(=O)[C@H]1CSC[C@@H](C(=O)OC)N1
inactive: CCRF-CEM > 100 µM | OVCAR-8 > 100 µM | NCI-H23 > 100 µM | KM12 > 100 µM | UACC-62 > 100 µM | OVCAR-3 > 100 µM | SW-620 > 100 µM | HT-29 > 100 µM | 786-0 > 100 µM | UACC-257 > 100 µM | SF-295 > 100 µM | TK-10 > 100 µM | OVCAR-4 > 100 µM | SK-MEL-5 > 100 µM

O=C1CC(S(=O)(=O)O)C=C1Nc1cccc(Cl)c1 (stereo unspecified)
inactive: CCRF-CEM > 100 µM | OVCAR-8 > 100 µM | NCI-H23 > 100 µM | KM12 > 100 µM | UACC-62 > 100 µM | OVCAR-3 > 100 µM | SW-620 > 100 µM | HT-29 > 100 µM | NCI-H226 > 100 µM | 786-0 > 100 µM | UACC-257 > 100 µM | SF-295 > 100 µM | TK-10 > 100 µM | OVCAR-4 > 100 µM | SK-MEL-5 > 100 µM

O=C1CCCCC1C1(O)C(=O)Nc2cc(F)ccc21 (stereo unspecified)
inactive: CCRF-CEM > 100 µM | OVCAR-8 > 100 µM | NCI-H23 > 100 µM | KM12 > 100 µM | UACC-62 > 100 µM | SW-620 > 100 µM | HT-29 > 100 µM | NCI-H226 > 100 µM | 786-0 > 100 µM | UACC-257 > 100 µM | SF-295 > 100 µM | TK-10 > 100 µM | OVCAR-4 > 100 µM | SK-MEL-5 > 100 µM

CCOC(=O)/C=C/c1ccccn1
inactive: CCRF-CEM > 100 µM | OVCAR-8 > 100 µM | NCI-H23 > 100 µM | KM12 > 100 µM | UACC-62 > 100 µM | SW-620 > 100 µM | HT-29 > 100 µM | NCI-H226 > 100 µM | 786-0 > 100 µM | UACC-257 > 100 µM | SF-295 > 100 µM | TK-10 > 100 µM | OVCAR-4 > 100 µM | SK-MEL-5 > 100 µM

O=C1CCSC2=C1SCc1sccc12
inactive: CCRF-CEM > 100 µM | OVCAR-8 > 100 µM | NCI-H23 > 100 µM | KM12 > 100 µM | UACC-62 > 100 µM | OVCAR-3 > 100 µM | SW-620 > 100 µM | 786-0 > 100 µM | UACC-257 > 100 µM | SF-295 > 100 µM | TK-10 > 100 µM | OVCAR-4 > 100 µM | SK-MEL-5 > 100 µM

CCOC(=O)C(C[Si](C)(C)C)P(=O)(OCC)OCC (stereo unspecified)
inactive: CCRF-CEM > 100 µM | OVCAR-8 > 100 µM | NCI-H23 > 100 µM | KM12 > 100 µM | UACC-62 > 100 µM | OVCAR-3 > 100 µM | SW-620 > 100 µM | HT-29 > 100 µM | NCI-H226 > 100 µM | 786-0 > 100 µM | UACC-257 > 100 µM | SF-295 > 100 µM | TK-10 > 100 µM | OVCAR-4 > 100 µM | SK-MEL-5 > 100 µM

CC(=O)Nc1ccc(/C=C2\N=C(c3ccccc3)OC2=O)cc1
inactive: CCRF-CEM 33.1 µM | OVCAR-8 6.32 µM | NCI-H23 > 100 µM | KM12 68.7 µM | UACC-62 27.2 µM | SW-620 > 100 µM | NCI-H226 > 100 µM | 786-0 > 100 µM | UACC-257 > 100 µM | SF-295 65.2 µM | TK-10 > 100 µM | OVCAR-4 > 100 µM | SK-MEL-5 57.8 µM

Cc1cccc(C)c1NC(=O)CCCC(=O)C1CCC/C1=N\NC(=O)C(=O)NN (stereo unspecified)
inactive: CCRF-CEM > 100 µM | OVCAR-8 > 100 µM | NCI-H23 > 100 µM | KM12 > 100 µM | OVCAR-3 > 100 µM | SW-620 > 100 µM | HT-29 > 100 µM | NCI-H226 > 100 µM | 786-0 > 100 µM | UACC-257 > 100 µM | SF-295 > 100 µM | TK-10 > 100 µM | OVCAR-4 > 100 µM | SK-MEL-5 > 100 µM

O=C1CCCc2c(O)ccc(O)c21
inactive: CCRF-CEM 19.1 µM | OVCAR-8 > 100 µM | NCI-H23 > 100 µM | KM12 > 100 µM | UACC-62 > 100 µM | OVCAR-3 > 100 µM | SW-620 61.2 µM | HT-29 > 100 µM | NCI-H226 > 100 µM | 786-0 > 100 µM | UACC-257 > 100 µM | SF-295 > 100 µM | TK-10 > 100 µM | OVCAR-4 > 100 µM | SK-MEL-5 > 100 µM

CCCC(=O)CC(C)C(=O)C(=O)NC12CC3CC(CC(C3)C1)C2 (stereo unspecified)
inactive: CCRF-CEM > 100 µM | OVCAR-8 > 100 µM | NCI-H23 > 100 µM | KM12 > 100 µM | OVCAR-3 > 100 µM | SW-620 > 100 µM | HT-29 > 100 µM | NCI-H226 > 100 µM | 786-0 > 100 µM | UACC-257 > 100 µM | SF-295 > 100 µM | TK-10 > 100 µM | OVCAR-4 > 100 µM | SK-MEL-5 > 100 µM

CCOC1C(Br)Cn2c(=O)c3cc4ccccc4cc3c(=O)n2C1C (stereo unspecified)
inactive: CCRF-CEM 50.1 µM | OVCAR-8 > 100 µM | NCI-H23 > 100 µM | KM12 > 100 µM | OVCAR-3 > 100 µM | SW-620 91.8 µM | HT-29 27.5 µM | NCI-H226 > 100 µM | 786-0 > 100 µM | UACC-257 60.4 µM | SF-295 71.8 µM | TK-10 > 100 µM | OVCAR-4 > 100 µM | SK-MEL-5 31.1 µM

CC(=O)N(N=O)c1ccc(N(N=O)C(C)=O)cc1
inactive: CCRF-CEM > 100 µM | OVCAR-8 > 100 µM | NCI-H23 > 100 µM | UACC-62 > 100 µM | OVCAR-3 > 100 µM | SW-620 > 100 µM | HT-29 > 100 µM | NCI-H226 > 100 µM | 786-0 > 100 µM | SF-295 > 100 µM | OVCAR-4 > 100 µM | SK-MEL-5 > 100 µM
